Assay [1] concerns T. gondii intracellular tachyzoites. The assay is described as follows: Drug sensitivity assay for T. gondii tachyzoites in HFF cells (RFP fluorescence, 6 days). Type of assay: cell-based, Toxoplasma gondii. The following applies: for effect on intracellular tachyzoites: concentrations up to 25 µM; for in vitro activity compared with sulfadiazine (in words): EC50 against T. gondii vs sulfadiazine; for EC50: intracellular tachyzoites in HFF, 6 days. The method, then: The in vitro inhibitory effects of antimicrobial nucleoside agents on T. gondii growth were determined in HFF cell cultures using 96-well black plates (Optical-Bottom Plates with Polymer Base, Thermo Fisher Scientific). 150 – 200 µL of HFF cells were seeded into 96-well black plates and incubated for 3-5 days at 37°C under 5% CO2 in a humidified incubator. Once the HFF cells became confluent the supernatant was discarded and replaced with 100 µL fresh DMEMc media. Sulfadiazine (positive control) and the nucleoside compounds were already dissolved in DMSO at known concentrations, usually prepared as 10 mM. After that, every compound was diluted in DMEMc at 4x final concentration. The assays were performed in duplicate or triplicate throughout. 100 µL of 4x compounds were transferred to the wells of the first column of a 96-well black plate of which each well contained HFF cells in 100 µL DMEMc. The compounds were mixed, and 100 µL was transferred using the multichannel pipette to the next column before being transferred to each column through the entire plate over one row, leaving the last column as a negative control without drug. After that, naturally, freshly egressed parasites were collected and filtered through a 3-µm filter (Sigma-Aldrich). ~1000 parasites/well were added in 100 µL DMEMc (giving a total volume of 200 µL/well) and incubated for 6 days at a 37°C/5% CO2 in a humidified incubator. On day 6, a PHERAstar plate reader (BMG Labtech, Germany) was used to read the fluorescence intensity at 540 nm for excitation and 590 nm for emission. The EC50 values and fluorescence data were determined and plotted by using Prism 8.0 (GraphPad). Each experiment was independently performed 3-5 times.
Most published protocols for in vitro drug screening against T. gondii use the MTT assay, which is a colorimetric assay that relies on tetrazolium salt and is used for accessing cell viability, cell proliferation and cytotoxicity for the host cells ([Jin et al., 2012]). Our protocol is an adaptation from a method that was used to evaluate antiretroviral compounds against T. gondii tachyzoites ([Wang et al., 2019]). These authors added 5×10^4 cells/mL freshly egressed tachyzoites to each well of a 96-well plate with an HFF cell monolayer, followed by incubation for 4 h to allow the cells to invade the host cells; the medium containing extracellular tachyzoites was then removed and fresh medium containing the desired concentration of the antiretroviral drugs was added to the wells and incubated for 5 days at 37°C and 5% CO2 in a humidified incubator ([Wang et al., 2019]). In our adaptation of this protocol, we aimed to eliminate the step of wash/removal of tachyzoites, in order to increase reproducibility. We thus prepared the serial dilutions of compounds in the 96-well plates containing the HFF monolayer cells and then added the lower number of 1×10^4 cells/mL freshly lysed tachyzoites to the 96-well plates, already containing both the HFF monolayer cells and tested compounds. The plates were then incubated for 6 days at 37°C and 5% CO2 in a humidified incubator. A major advantage that was introduced was detection of T. gondii in the wells, which was achieved by measuring fluorescence of the RFP-expressing parasites.

Assay [2] concerns the target uridine/uracil transporter 1 (TgUUT1). The experiment in a line: Transport of 0.1 µM [3H]-uridine into extracellular T. gondii tachyzoites (oil-stop technique). In kind it is cell-based, Toxoplasma gondii. The following applies: for Ki: inhibition of 0.1 µM [3H]-uridine transport; for δ(ΔG^0): loss of binding energy compared with uridine; for inhibition of [3H]-uridine uptake: 0.1 µM [3H]-uridine, 5 min; for Gibbs free energy of binding: from Km/Ki on [3H]-uridine transport; for Km: 0.1 µM label, tachyzoites, n=3.

Assay [3] concerns T. gondii. The assay is described as follows: Mouse model of acute toxoplasmosis, parasite burden in lung by qPCR. As to conditions: pyrimidines 25 mg/kg i.p., sulfadiazine oral in water, lung parasite burden day 10. In kind it is in vivo, C57BL/6J mice. A general note: Real-time PCR tracks product formation cycle by cycle.
Assay [4] deals with HFF cells. The experiment in a line: cells. The following applies: Homo sapiens, 144 h.
The test system of assay [5] is HFF cells. As to conditions: for S.I.: selectivity index, HFF cytocidal EC50/tachyzoite EC50; for EC50: read-out: HFF ctotoxicity EC50 Cytostatic, uninfected HFF, 6 days.
Assay [6] relates to uridine/uracil transporter 1 (TgUUT1). The assay is described as follows: Transport of 0.1 µM [3H]-uracil into extracellular T. gondii tachyzoites (oil-stop technique). In kind it is cell-based, Toxoplasma gondii. As to conditions: for Ki: inhibition of 0.1 µM [3H]-uracil transport.
In assay [7] the test system is TgAT1. Also noted: method as in Chiang et al., 1999. The following applies: TgAT1 expressed in X. laevis oocytes; ref Chiang et al., 1999; cited from earlier work.
In assay [8] the test system is T. gondii tachyzoites. The assay is described as follows: Uptake of tritiated pyrimidines by T. gondii tachyzoites over time. Type of assay: cell-based, Toxoplasma gondii.
Assay [9] concerns T. gondii. Also on record: method as in el Kouni et al., 1999. The following applies: ref el Kouni et al., 1999; read-out: EC50 against T. gondii; cited from earlier work.
[10] abbreviates: read-out: HFF ctotoxicity EC50 Cytostatic.
The mark [11] stands for this setting: read-out: HFF ctotoxicity EC50 Cytostatic (second column).

Where “and” joins values, the source holds several entries; their conditions need not be identical. Equal values may be shown once. Read-outs that look alike come from different tables or passages of the source.

We go through 18 compounds from PMC10755004, “Pyrimidine salvage in Toxoplasma gondii as a target for new treatment” (Frontiers in Cellular and Infection Microbiology, 2023).

One may read the Ki as a measure of affinity in units of concentration, obtained from inhibition or displacement. Lower therefore signals a stronger hold on the target. The EC50 is the midpoint of the concentration-response curve. By Km is commonly meant the substrate concentration at which the rate is half of its maximum. The term inhibition denotes the share of the control response that was lost under treatment.

As for `O=c1ccn([C@H]2CC[C@@H](CO)O2)c(=O)[nH]1` [2’,3’-dideoxyuridine], in [1], the “effect on intracellular tachyzoites” value was “no effect”.
In the case of `O=c1ccn([C@H]2C[C@H](O)[C@@H](CO)O2)c(=O)[nH]1` [2’-Deoxyuridine], in assay [2], the Ki was 134 ± 31 µM; the “δ(ΔG^0)” value is 2.15 kcal/mol and 2.17 kcal/mol. Further, in assay [1], the “effect on intracellular tachyzoites” value is recorded as “no effect”.
As for `Cc1cn([C@H]2CC[C@@H](CO)O2)c(=O)[nH]c1=O` [3’-deoxythymidine], in assay [1], the “effect on intracellular tachyzoites” value is “no effect”.
Consider `O=c1[nH]c(=O)n([C@H]2C[C@H](O)[C@@H](CO)O2)cc1F` [5-F,2’dUrd, 5-fluoro-2’deoxyuridine], for which the “efficacy against acute toxoplasmosis, comparison between treatments” value is “significantly less effective” in assay [3] and “similarly effective as sulfadiazine” in assay [3] (listed as 5F,2’-deoxyuridine). Moreover, in [1], the “in vitro activity compared with sulfadiazine (in words)” value was “well below”. For the same compound, the EC50 amounted to 0.67 ± 0.07 µM in assay [1] (Toxoplasma gondii, 144 h); 0.19 ± 0.05 µM in assay [4] (setting [10]); 1480 ± 510 µM in [4] (setting [11]). Moreover, in [5], the S.I. was 2205.
For the compound `O=c1[nH]cc(F)c(=O)[nH]1` [5-FU, 5-fluorouracil], the “efficacy against acute toxoplasmosis, comparison between treatments” value in assay [3] is given as “not significantly different from sulfadiazine”; in [3] (listed as 5F-uracil), “similarly effective as sulfadiazine”. The inhibition constant Ki in [2] worked out at 5.24 ± 0.72 µM; in assay [6], 6.8 ± 2.12 µM. Further, in [1], the “in vitro activity compared with sulfadiazine (in words)” value is “well below”. Besides, the 50% effective concentration (EC50) in [1] (Toxoplasma gondii, 144 h) came out at 1.13 ± 0.16 µM; in assay [4] (setting [10]), 2.49 ± 0.43 µM; in assay [4] (setting [11]), 3070 ± 340 µM. For the same compound, the “δ(ΔG^0)” value in assay [6] (5-FU Ki compared to uracil Km) stood at 0.717 kcal/mol. In assay [5], this compound had a S.I. of 2720.
Consider `O=c1[nH]c(=O)n([C@@H]2O[C@H](CO)[C@@H](O)[C@H]2O)cc1F` [5-FUrd, 5-Flourouridine], for which, in [1], the “in vitro activity compared with sulfadiazine (in words)” value is listed as “well below”. Also, the EC50 in [1] stood at 0.45 ± 0.02 µM; in [5] (first (low concentration) phase, growth inhibition), 0.11 ± 0.1 µM; in assay [5] (second phase (cytocidal per footnote and text)) it was 20.4 ± 1 µM. For the same compound, in assay [5], the S.I. is on record as 45.
The compound `Cc1cn([C@@H]2O[C@H](CO)[C@@H](O)[C@H]2O)c(=O)[nH]c1=O` [5-Methyluridine] had an inhibitory constant (Ki) in assay [2] of 2380 ± 774 µM.
In the case of `C[C@H]1O[C@@H](n2ccc(=O)[nH]c2=O)[C@H](O)[C@@H]1O` [5’-deoxyuridine], in assay [1], the “effect on intracellular tachyzoites” value is “no effect”.
Take `Nc1ncnc2c1ncn2[C@@H]1O[C@H](CO)[C@@H](O)[C@H]1O` [Adenosine]: in [2] (2500-fold excess of unlabeled inhibitor), the “inhibition of TgUUT1 uridine uptake” value is reported as ~ 70%. This compound showed an inhibition constant (Ki) in assay [2] of 112 ± 6 µM. Besides, the Km in [7] was 114 µM.
`Nc1ncnc2c1ncn2[C@@H]1O[C@H](CO)[C@@H](O)[C@@H]1O` [Ara-A, adenine arabinoside] gave an EC50 in [1] of 11.4 ± 1.8 µM.
Consider `Nc1ccn([C@@H]2O[C@H](CO)[C@@H](O)[C@H]2O)c(=O)n1` [Cytidine], for which the Rate of uptake in assay [8] (0.20 µM radiolabel) is 0.0029 ± 0.0004 pmol(10^7 cells)^-1min^-1; in [8] (0.20 µM radiolabel, listed as [^3H]-cytidine) it was 0.0029 pmol(10^7 cells)^-1min^-1.
Compound `O=c1[nH]cnc2c1ncn2[C@@H]1O[C@H](CO)[C@@H](O)[C@H]1O` [Inosine] returned an inhibition constant (Ki) in [2] of 28.2 ± 4.1 µM.
As for `O=[N+]([O-])c1ccc(CSc2ncnc3c2ncn3[C@@H]2O[C@H](CO)[C@@H](O)[C@H]2O)cc1` [NBMPR], the figures for the EC50 in assay [9] and in assay [1] were 10.2 µM and 3.19 ± 0.14 µM, respectively.
As to `CCc1nc(N)nc(N)c1-c1ccc(Cl)cc1` [Pyrimethamine], the EC50 in assay [1] (Toxoplasma gondii, 144 h) was 16.2 µM.
`Nc1ccc(S(=O)(=O)Nc2ncccn2)cc1` [Sulfadiazine] gave an EC50 in assay [1] (Toxoplasma gondii, 144 h) of 12.4 ± 1.08 µM.
Turning to `Cc1cn([C@H]2C[C@H](O)[C@@H](CO)O2)c(=O)[nH]c1=O` [Thymidine], the “inhibition of [3H]-thymidine uptake” value in assay [8] (0.25 µM [3H]-thymidine over 10 min, 1 mM unlabeled inhibitor) is reported as “did not significantly inhibit”. For the same compound, the Rate of uptake in [8] (0.25 µM radiolabel, over 10 min) is listed as 0.00071 ± 0.00016 pmol(10^7 cells)^-1min^-1. Also, the “inhibition of [3H]-uridine uptake” value in [2] (250 µM inhibitor) is on record as “somewhat inhibited”. In assay [2], the “Gibbs free energy of binding” value was -4.09 kcal/mol; the inhibitory constant (Ki) came out at 1010 ± 145 µM; the “δ(ΔG^0)” value was 3.37 kcal/mol and 3.39 kcal/mol.
`O=c1cc[nH]c(=O)[nH]1` [Uracil]: the Rate of uptake in assay [8] (0.10 µM radiolabel) is on record as 0.026 ± 0.0014 pmol(10^7 cells)^-1min^-1; in assay [8] (0.10 µM radiolabel, listed as [^3H]-uracil), 0.026 pmol(10^7 cells)^-1min^-1. In [2] (250 µM inhibitor), the “inhibition of [3H]-uridine uptake” value is 80%. This compound gave a Ki in assay [2] of 1.15 ± 0.07 µM. Further, the Vmax in assay [6] ([3H]-uracil as substrate) is 0.166 pmol(10^7 cells)^-1 min^-1. Further, the Km in assay [6] ([3H]-uracil as substrate, 0.1 µM label, tachyzoites, n=3) was 2.05 ± 0.4 µM.
`O=c1ccn([C@@H]2O[C@H](CO)[C@@H](O)[C@H]2O)c(=O)[nH]1` [Uridine]: in assay [8] (0.10 µM radiolabel), the Rate of uptake is listed as 0.011 ± 0.0006 pmol(10^7 cells)^-1min^-1. Also, in [8] (0.2 µM [3H]-cytidine, 1 mM unlabeled inhibitor), the “inhibition of [3H]-cytidine uptake” value is on record as “fully inhibited”. For the same compound, the “inhibition of [3H]-thymidine uptake” value in [8] (0.25 µM [3H]-thymidine, 250 µM inhibitor) is given as “did not inhibit”. This compound also gave an inhibition at 250 µM in [8] (Toxoplasma gondii, [3H]-cytidine, 250 µM inhibitor) of 100%. Besides, the “inhibition of [3H]-uridine uptake” value in assay [2] (1 mM unlabeled inhibitor) is recorded as 90%. For the same compound, the Vmax in assay [2] ([3H]-uridine as substrate) was 1.21 ± 0.24 pmol(10^7 cells)^-1 min^-1. Further, the Km in [2] ([3H]-uridine as substrate, listed as [^3H]-uridine) is 3.34 ± 0.82 µM; in assay [2] ([3H]-uridine as substrate, listed as uridine) it was 3.3 ± 0.8 µM. In addition, in [2], the “Gibbs free energy of binding” value was -7.46 kcal/mol. In [6], this compound displayed a Ki of 2.44 ± 0.59 µM.
